We go through 34 compounds from ChEMBL document CHEMBL3045734, “Synthesis of Mannich Bases of 2, 6-Disubstituted 2H-pyran-3(6H)-ones and their Miticidal Activity” (1994).

Broadly, the mortality is the share of the test organisms that died.

Assay type in all cases: functional
Assay [1] has as its system Tetranychus urticae. The experiment in a line: Miticidal activity against Tetranychus urticae (two-spotted spider mite) in kidney beans assessed as mortality under greenhouse at 50 ppm at 25 +/- 2 degC measured after 48 hr of spray.
Assay [2] deals with Tetranychus urticae. As to the kind of experiment: Miticidal activity against Tetranychus urticae (two-spotted spider mite) in kidney beans assessed as mortality under greenhouse at 100 ppm at 25 +/- 2 degC measured after 48 hr of spray.
Assay [3] concerns Tetranychus urticae. The experiment in a line: Miticidal activity against Tetranychus urticae (two-spotted spider mite) in kidney beans assessed as mortality under greenhouse at 300 ppm at 25 +/- 2 degC measured after 48 hr of spray.
For assay [4], the system named is Tetranychus urticae. The experiment in a line: Miticidal activity against Tetranychus urticae (two-spotted spider mite) in kidney beans assessed as mortality under greenhouse at 600 ppm at 25 +/- 2 degC measured after 48 hr of spray.
Assay [5] relates to Tetranychus kanzawai. As to the kind of experiment: Miticidal activity against Tetranychus kanzawai in kidney beans assessed as mortality under greenhouse at 300 ppm at 25 +/- 2 degC measured after 48 hr of spray.
The test system of assay [6] is Panonychus citri. As to the kind of experiment: Miticidal activity against Panonychus citri in satsuma mandarin assessed as mortality under greenhouse at 300 ppm at 25 +/- 2 degC measured after 48 hr of spray.
Assay [7] has as its system Panonychus citri. As to the kind of experiment: Miticidal activity against Panonychus citri in satsuma mandr assessed as next generation adult mites under greenhouse at 300 ppm at 25 +/- 2 degC measured after 14 days of spray relative to control.
In assay [8] the test system is Tetranychus kanzawai. As to the kind of experiment: Miticidal activity against Tetranychus kanzawai in kidney beans assessed as mortality under greenhouse at 50 ppm at 25 +/- 2 degC measured after 48 hr of spray.
In assay [9] the test system is Panonychus citri. As to the kind of experiment: Miticidal activity against Panonychus citri in satsuma mandarin assessed as mortality under greenhouse at 100 ppm at 25 +/- 2 degC measured after 48 hr of spray.
For assay [10], the system named is Tetranychus urticae. The experiment in a line: Miticidal activity against Tetranychus urticae (two-spotted spider mite) in kidney beans assessed as next generation adult mites under greenhouse at 300 ppm at 25 +/- 2 degC measured after 14 days of spray relative to control.
Assay [11] concerns Panonychus citri. The experiment in a line: Miticidal activity against Panonychus citri in satsuma mandarin assessed as mortality under greenhouse at 50 ppm at 25 +/- 2 degC measured after 48 hr of spray.
For assay [12], the system named is Tetranychus kanzawai. The experiment in a line: Miticidal activity against Tetranychus kanzawai in kidney beans assessed as mortality under greenhouse at 100 ppm at 25 +/- 2 degC measured after 48 hr of spray.
For assay [13], the system named is Tetranychus kanzawai. As to the kind of experiment: Miticidal activity against Tetranychus kanzawai in kidney beans assessed as next generation adult mites under greenhouse at 300 ppm at 25 +/- 2 degC measured after 14 days of spray relative to control.

For the compound `CCCCCCC1OC(OC)C=C(CN2CCCCC2)C1=O` (centres undefined), in the assay on Tetranychus urticae [1], the mortality at 50 ppm amounted to 40%. In addition, in the assay with Tetranychus urticae [2], the mortality at 100 ppm worked out at 77%. The mortality at 300 ppm in the assay with Tetranychus urticae [3] came to 100%. The mortality at 600 ppm with Tetranychus urticae [4] is 100%.
For the compound `CCCCCCCCC1OC(OC)C=C(CN2CCCCC2)C1=O` (centres undefined), the mortality at 100 ppm in the assay on Tetranychus urticae [2] worked out at 50%. Further, in the assay with Tetranychus urticae [3], the mortality at 300 ppm turned out to be 90%. Moreover, the mortality at 600 ppm in the assay on Tetranychus urticae [4] was 100%.
Turning to `CCCCCCC1OC(OC2CCCCC2)C=C(CN2CCCCC2)C1=O` (centres undefined), the mortality at 50 ppm with Tetranychus urticae [1] was 40%. The mortality at 100 ppm with Tetranychus urticae [2] came to 82%. The mortality at 300 ppm in the assay with Tetranychus urticae [3] came out at 100%.
Consider `CCCCCCC1OC(OCc2ccccc2)C=C(CN2CCCCC2)C1=O` (centres undefined), for which, in the assay with Tetranychus urticae [2], the mortality at 100 ppm is 40%. In the assay on Tetranychus urticae [3], the mortality at 300 ppm is 55%.
Taken in the same sequence, the figures for `CCCCCCC1OC(Oc2ccccc2)C=C(CN2CCCCC2)C1=O` (centres undefined) were 20% and 60%.
In the case of `CCCCCCCCCCCCC1OC(OC)C=C(CN2CCCCC2)C1=O` (centres undefined), the mortality at 300 ppm in the assay with Tetranychus urticae [3] was found to be 65%. For the same compound, in the assay on Tetranychus urticae [4], the mortality at 600 ppm was found to be 90%.
On to `COC1C=C(CN2CCCCC2)C(=O)C(c2ccccc2)O1` (centres undefined), for which the mortality at 600 ppm in the assay on Tetranychus urticae [4] turned out to be 30%.
Still for that read-out and setting: as for `CCCCCCC1OC(OC)C=C(CN(CC)CC)C1=O` (centres undefined), the figure is 60%; as for `CCN(CC)CC1=CC(OC)OC(C2CCCCC2)C1=O` (centres undefined), 60%; as for `CCCCCCC1OC(OC)C=C(CN(CCCC)CCCC)C1=O` (centres undefined), 75%.
Same read-out and setting: as for `CCCCN(CCCC)CC1=CC(OC)OC(C2CCCCC2)C1=O` (centres undefined), the figure is 70%; as for `CCCCCCC1OC(OC)C=C(CN2CCCC2)C1=O` (centres undefined), 70%.
Still for that read-out and setting: the figure for `COC1C=C(CN2CCCC2)C(=O)C(C2CCCCC2)O1` (centres undefined) is 68%.
On to `CCCCCCC1OC(OC)C=C(CN2CCOCC2)C1=O` (centres undefined), for which the mortality at 300 ppm in the assay on Tetranychus urticae [3] came out at 65%. The mortality at 600 ppm in the assay with Tetranychus urticae [4] stood at 90%.
The like results for `COC1C=C(CN2CCOCC2)C(=O)C(C2CCCCC2)O1` (centres undefined) were, in that order, 65% and 90%.
Turning to `CCCCCCC1OC(OC)C=C(CN2CCC(C)CC2)C1=O` (centres undefined), the mortality at 100 ppm in the assay on Tetranychus urticae [2] stood at 70%. Moreover, the mortality at 300 ppm in the assay on Tetranychus urticae [3] is 95%. Further, the mortality at 600 ppm in the assay on Tetranychus urticae [4] was determined as 100%.
Regarding `COC1C=C(CN2CCC(C)CC2)C(=O)C(C2CCCCC2)O1` (centres undefined), the mortality at 100 ppm in the assay with Tetranychus urticae [2] is 60%. The mortality at 300 ppm with Tetranychus urticae [3] worked out at 85%. For the same compound, the mortality at 600 ppm in the assay with Tetranychus urticae [4] stood at 100%.
The like results for `CCCCCCC1OC(OC)C=C(CN2CCCC(C)C2)C1=O` (centres undefined) were, in that order, 55%, 85% and 100%.
The like results for `COC1C=C(CN2CCCC(C)C2)C(=O)C(C2CCCCC2)O1` (centres undefined) were, in that order, 65%, 83% and 100%.
As for `CCCCCCC1OC(OC)C=C(CN2CCCCC2C)C1=O` (centres undefined), the mortality at 300 ppm with Tetranychus urticae [3] worked out at 60%. Also, in the assay with Tetranychus urticae [4], the mortality at 600 ppm worked out at 90%.
Taken in the same sequence, the figures for `COC1C=C(CN2CCCCC2C)C(=O)C(C2CCCCC2)O1` (centres undefined) were 55% and 80%.
With `CCCCCCC1OC(OCC)C=C(CN2CCCCC2)C1=O` (centres undefined), the mortality at 50 ppm in the assay on Tetranychus urticae [1] is 40%. The mortality at 100 ppm with Tetranychus urticae [2] is 70%. In addition, the mortality at 300 ppm with Tetranychus urticae [3] was found to be 100%.
The like results for `CCCCCCC1OC(OCCC)C=C(CN2CCCCC2)C1=O` (centres undefined) were, in that order, 70%, 100% and 100%.
Turning to `CCCCCCC1OC(OC(C)C)C=C(CN2CCCCC2)C1=O` (centres undefined), the mortality at 300 ppm with Tetranychus kanzawai [5], in the assay with Panonychus citri [6] and in the assay on Tetranychus urticae [3] was 100% in each case. For the same compound, the mortality at 50 ppm in the assay with Tetranychus urticae [1] is 90%; in the assay on Tetranychus kanzawai [8], 93%; with Panonychus citri [11], 88%. Besides, the Activity is 91% in the assay with Panonychus citri [7], 93% in the assay with Tetranychus urticae [10] and 90% in the assay on Tetranychus kanzawai [13]. Further, the mortality at 100 ppm with Tetranychus urticae [2], in the assay with Panonychus citri [9] and with Tetranychus kanzawai [12] was 100% throughout.
`CCCCCCC1OC(OCCCC)C=C(CN2CCCCC2)C1=O` (centres undefined): in the assay with Tetranychus urticae [1], the mortality at 50 ppm turned out to be 40%. In the assay on Tetranychus urticae [2], the mortality at 100 ppm was found to be 75%. Also, in the assay on Tetranychus urticae [3], the mortality at 300 ppm came to 100%.
In the case of `CCCCCCC1OC(OCC(C)C)C=C(CN2CCCCC2)C1=O` (centres undefined), in the assay with Tetranychus urticae [1], the mortality at 50 ppm is 75%. The mortality at 100 ppm in the assay on Tetranychus urticae [2] was found to be 92%. The mortality at 300 ppm in the assay with Tetranychus urticae [3] was determined as 100%.
The like results for `CCCCCCC1OC(OC(C)(C)C)C=C(CN2CCCCC2)C1=O` (centres undefined) were, in that order, 50%, 75% and 95%.
The like results for `CCCCCCOC1C=C(CN2CCCCC2)C(=O)C(CCCCCC)O1` (centres undefined) were, in that order, 45%, 70% and 85%.
Take `COC1C=C(CN2CCCCC2)C(=O)CO1` (centres undefined): in the assay with Tetranychus urticae [3], the mortality at 300 ppm turned out to be 10%. Moreover, the mortality at 600 ppm in the assay with Tetranychus urticae [4] was determined as 70%.
Taken in the same sequence, the figures for `CCCC1OC(OC)C=C(CN2CCCCC2)C1=O` (centres undefined) were 20% and 90%.
As to `CCCCC1OC(OC)C=C(CN2CCCCC2)C1=O` (centres undefined), in the assay with Tetranychus urticae [2], the mortality at 100 ppm was 10%. Moreover, in the assay on Tetranychus urticae [3], the mortality at 300 ppm worked out at 87%. Further, the mortality at 600 ppm in the assay with Tetranychus urticae [4] worked out at 90%.
Regarding `CCCCCC1OC(OC)C=C(CN2CCCCC2)C1=O` (centres undefined), the mortality at 100 ppm in the assay with Tetranychus urticae [2] was 20%. Also, in the assay with Tetranychus urticae [3], the mortality at 300 ppm came out at 95%. The mortality at 600 ppm in the assay with Tetranychus urticae [4] is 100%.
Taken in the same sequence, the figures for `COC1C=C(CN2CCCCC2)C(=O)C(C2CCCCC2)O1` (centres undefined) were 68%, 100% and 100%.
The like results for `CCCCCCCCCCC1OC(OC)C=C(CN2CCCCC2)C1=O` (centres undefined) were, in that order, 20%, 70% and 95%.
